Several values for one entry are separate records, joined by “and”; a condition that tells them apart may be missing. Identical values can stand only once.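 Following 48 hours of exposure in 96-well plates, responses at five concentrations were used to interpolate endpoints linearly. GI50 is the concentration that inhibits growth by half. Definition used: TGI = concentration required for complete inhibition of growth.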

Among the test systems are A549 NSCLC; CCRF-CEM leukemia; EKVX NSCLC; HCT-116 colon; IGROV1 ovarian; K-562 leukemia; M14 melanoma; NCI-H460 lung; SNB-75 CNS; UO-31 renal.
Assay in all cases: NCI tumour cell line growth inhibition, 48 h

On to `COc1ccc(-c2ccc(C3CC(c4ccc(Cl)cc4)=NN3)o2)c([N+](=O)[O-])c1` (stereo unspecified), for which the GI50 with A549 NSCLC is greater than 100 µM; with CCRF-CEM leukemia, greater than 100000 nM; with EKVX NSCLC, greater than 100 µM; with HCT-116 colon it was greater than 100000 nM; with IGROV1 ovarian, greater than 100 µM; with K-562 leukemia, greater than 100 µM. Moreover, the GI50 with M14 melanoma was greater than 100 µM; in the assay on NCI-H460 lung, greater than 100000 nM; in the assay with SNB-75 CNS it was greater than 100000 nM; with UO-31 renal, greater than 100000 nM. Moreover, the TGI in the assay on A549 NSCLC, with CCRF-CEM leukemia, with EKVX NSCLC, in the assay on HCT-116 colon, in the assay on IGROV1 ovarian and in the assay on K-562 leukemia was greater than 100 µM in each case. The TGI in the assay with M14 melanoma, in the assay with NCI-H460 lung, with SNB-75 CNS and in the assay on UO-31 renal was greater than 100 µM in each case.
On to `Nc1ncnc2c1ncn2C1OC(CO)=CC1O` (stereo unspecified), for which the TGI in the assay with A549 NSCLC, in the assay with CCRF-CEM leukemia, in the assay on EKVX NSCLC, in the assay with HCT-116 colon, in the assay with IGROV1 ovarian and in the assay with K-562 leukemia was greater than 37.5 µM each time. Besides, the TGI in the assay on M14 melanoma, in the assay on NCI-H460 lung, with SNB-75 CNS and with UO-31 renal was greater than 37.5 µM each time.
For the compound `CO[C@@H]1[C@H](OC(=O)NC(=O)CCl)CC[C@]2(CO2)[C@H]1[C@@]1(C)O[C@@H]1CC=C(C)C`, the GI50 is 4.25 µM in the assay on A549 NSCLC; 1980 nM and 5490 nM with CCRF-CEM leukemia; 22.4 µM with EKVX NSCLC; 2770 nM and 11200 nM and 2960 nM in the assay on HCT-116 colon; 32.7 µM in the assay with K-562 leukemia; 755 nM and 2600 nM in the assay on NCI-H460 lung. For the same compound, the GI50 in the assay with UO-31 renal was 16100 nM. In addition, the TGI in the assay on A549 NSCLC was 44.2 µM; in the assay on CCRF-CEM leukemia, 18 µM and 28.4 µM; in the assay on EKVX NSCLC, 35.8 µM and 52.4 µM; in the assay on HCT-116 colon it was 28.7 µM and 40.9 µM; with IGROV1 ovarian, 33 µM and 43.4 µM; with K-562 leukemia, 58.5 µM and 129 µM. Moreover, the TGI in the assay with M14 melanoma was 32.3 µM and 40.5 µM; in the assay with NCI-H460 lung it was 24.2 µM and 49.6 µM; in the assay with SNB-75 CNS, 24.7 µM and 200 µM; in the assay with UO-31 renal it was 26.6 µM and 46.2 µM.
For the compound `C=C1C(=O)O[C@H]2[C@H]1CC/C(COC(=O)NCc1c[nH]c3ccc(Cl)cc13)=C\CC[C@@]1(C)O[C@@H]21`, the GI50 in the assay with A549 NSCLC was 1.7 µM; in the assay on CCRF-CEM leukemia it was 341 nM; with EKVX NSCLC it was 1.58 µM; in the assay on HCT-116 colon it was 1270 nM; with IGROV1 ovarian, 1.41 µM; in the assay with K-562 leukemia, 0.416 µM. Besides, the GI50 was 1.4 µM in the assay on M14 melanoma, 1960 nM in the assay with NCI-H460 lung, 1290 nM in the assay with SNB-75 CNS and 1430 nM in the assay on UO-31 renal. Further, the TGI in the assay on A549 NSCLC stood at 3.43 µM; in the assay with CCRF-CEM leukemia, 1.88 µM; with EKVX NSCLC, 3 µM; in the assay with HCT-116 colon, 2.61 µM; in the assay on IGROV1 ovarian, 2.94 µM; in the assay with K-562 leukemia it was 2.02 µM. Moreover, the TGI in the assay with M14 melanoma turned out to be 2.91 µM; in the assay on NCI-H460 lung, 3.96 µM; with SNB-75 CNS it was 2.57 µM; with UO-31 renal it was 2.75 µM.
Turning to `CN(C)CCCc1c[nH]c2ccccc12`, the TGI in the assay with A549 NSCLC, with CCRF-CEM leukemia, in the assay with EKVX NSCLC, in the assay on HCT-116 colon, in the assay with IGROV1 ovarian and in the assay with K-562 leukemia was greater than 100 µM each time. Further, the TGI in the assay with M14 melanoma, in the assay with NCI-H460 lung, in the assay on SNB-75 CNS and in the assay with UO-31 renal was greater than 100 µM throughout.
Regarding `N#Cc1cc([N+](=O)[O-])ccc1NC(=O)C(=O)C(C(=O)/C=C/c1ccccc1)C1OC(=O)c2ccccc21` (stereo unspecified), the TGI with A549 NSCLC, in the assay with CCRF-CEM leukemia, in the assay on EKVX NSCLC, with HCT-116 colon, in the assay with IGROV1 ovarian and in the assay on K-562 leukemia was greater than 100 µM throughout. For the same compound, the TGI with M14 melanoma, in the assay with NCI-H460 lung, with SNB-75 CNS and in the assay on UO-31 renal was greater than 100 µM in each case.
Regarding `CC(C)(C)c1ccc(C(O)c2ccc(C(C)(C)C)cc2)cc1`, the TGI is 27.2 µM with A549 NSCLC; 38.9 µM with CCRF-CEM leukemia; 32.3 µM in the assay with EKVX NSCLC; 24.5 µM in the assay with HCT-116 colon; 30.6 µM in the assay with IGROV1 ovarian; 33.3 µM in the assay on K-562 leukemia. Also, the TGI with M14 melanoma was found to be 28.7 µM; with NCI-H460 lung, 26.6 µM; in the assay with SNB-75 CNS it was 33.9 µM; with UO-31 renal it was 29.7 µM.
Take `CC(C)(C)C(=O)C1CC(=O)c2ccccc2C1=O` (stereo unspecified): the TGI with A549 NSCLC was greater than 100 µM; in the assay with CCRF-CEM leukemia, greater than 100 µM; in the assay on EKVX NSCLC, greater than 100 µM; in the assay with HCT-116 colon, 46.2 µM; in the assay on IGROV1 ovarian, greater than 100 µM; in the assay with K-562 leukemia it was greater than 100 µM. In addition, the TGI was greater than 100 µM in the assay with M14 melanoma, greater than 100 µM with NCI-H460 lung, 31.3 µM in the assay with SNB-75 CNS and 67.8 µM in the assay with UO-31 renal.
In the case of `C[C@H]1[C@H](C)CC[C@]2(C(=O)O)CC[C@]3(C)C(=CC[C@@H]4[C@@]5(C)C/C(=C/c6ccco6)C(=O)C(C)(C)[C@@H]5CC[C@]43C)[C@H]12`, the GI50 with A549 NSCLC is 3.71 µM; with CCRF-CEM leukemia it was 3520 nM; in the assay with EKVX NSCLC it was 3.69 µM; in the assay with HCT-116 colon, 3100 nM; in the assay on IGROV1 ovarian, 5.19 µM; with K-562 leukemia it was 3.26 µM. Besides, the GI50 in the assay with M14 melanoma was 5.27 µM; in the assay on NCI-H460 lung it was 3370 nM; in the assay on SNB-75 CNS, 18600 nM; with UO-31 renal, 2940 nM. For the same compound, the TGI in the assay on A549 NSCLC was 16.8 µM; in the assay with CCRF-CEM leukemia, 16.8 µM; in the assay with EKVX NSCLC, 15.4 µM; in the assay on HCT-116 colon, 11.7 µM; in the assay on IGROV1 ovarian, 21.7 µM; in the assay on K-562 leukemia, greater than 100 µM. Further, the TGI stood at 21.2 µM in the assay on M14 melanoma, 11.9 µM in the assay on NCI-H460 lung, 71.8 µM in the assay on SNB-75 CNS and 13.1 µM with UO-31 renal.
Take `Cc1ccc(Cl)c(NC(=O)C(=O)C(C(=O)c2ccncc2)C2OC(=O)c3ccccc32)c1` (stereo unspecified): the TGI in the assay on A549 NSCLC, in the assay with CCRF-CEM leukemia, in the assay with EKVX NSCLC, in the assay with HCT-116 colon, with IGROV1 ovarian and in the assay with K-562 leukemia was greater than 100 µM throughout. Also, the TGI in the assay with M14 melanoma, with NCI-H460 lung, in the assay with SNB-75 CNS and in the assay with UO-31 renal was greater than 100 µM throughout.
On to `CSc1nc2sc3cc(Cl)ccc3n2c(=N)c1C#N`, for which the GI50 in the assay on A549 NSCLC was 12.2 µM; with EKVX NSCLC it was 10.7 µM; in the assay on HCT-116 colon, greater than 25700 nM; in the assay on IGROV1 ovarian it was greater than 49.2 µM; in the assay on K-562 leukemia it was greater than 52.4 µM; in the assay on M14 melanoma it was greater than 54.7 µM. The figures for the GI50 in the assay on NCI-H460 lung, in the assay with SNB-75 CNS and in the assay on UO-31 renal were greater than 79700 nM, 2270 nM and greater than 76200 nM, respectively. The TGI was greater than 100 µM in the assay on A549 NSCLC; greater than 100 µM in the assay with CCRF-CEM leukemia; greater than 100 µM in the assay with EKVX NSCLC; greater than 100 µM in the assay on HCT-116 colon; greater than 88.4 µM with IGROV1 ovarian; greater than 100 µM with K-562 leukemia. Besides, the TGI in the assay with M14 melanoma is greater than 100 µM; with NCI-H460 lung, greater than 100 µM; with SNB-75 CNS, greater than 69.6 µM; in the assay on UO-31 renal, greater than 100 µM.
For `COC(=O)C1=C(CO)C2C=CC1C2` (stereo unspecified), the TGI in the assay on A549 NSCLC, in the assay with CCRF-CEM leukemia, in the assay with EKVX NSCLC, in the assay on HCT-116 colon, with IGROV1 ovarian and with K-562 leukemia was greater than 100 µM each time. Moreover, the TGI with M14 melanoma, in the assay on NCI-H460 lung, in the assay on SNB-75 CNS and in the assay on UO-31 renal was greater than 100 µM in each case.
For the compound `Cc1ccc(S(=O)(=O)N2CCc3ccc(O)c4c3C2Cc2cc(Cl)ccc2-4)cc1` (stereo unspecified), the GI50 was 1.16 µM with A549 NSCLC; 922 nM in the assay on CCRF-CEM leukemia; 2.52 µM in the assay with EKVX NSCLC; 1110 nM with HCT-116 colon; 1.35 µM in the assay on IGROV1 ovarian; 1.16 µM in the assay on K-562 leukemia. Moreover, the GI50 in the assay with M14 melanoma is 0.88 µM; in the assay on NCI-H460 lung it was 1030 nM; with SNB-75 CNS, 639 nM; in the assay on UO-31 renal it was 1520 nM. The TGI worked out at 5.44 µM in the assay with A549 NSCLC; 14.1 µM with CCRF-CEM leukemia; 28.8 µM in the assay with EKVX NSCLC; 4.38 µM in the assay with HCT-116 colon; 5.86 µM in the assay with IGROV1 ovarian; 14.8 µM with K-562 leukemia. In addition, the TGI with M14 melanoma was determined as 2.96 µM; in the assay with NCI-H460 lung it was 3.74 µM; with SNB-75 CNS, 2.42 µM; in the assay on UO-31 renal, 14.4 µM.
